According to US8598182B2, “Insecticidal pyrimidinyl aryl hyrdrazones” (Dow AgroSciences, LLC., priority 2007, dated 2013):

Legend:
[1] = test system: Corn Earworm (Helicoverpa zea); test: Insecticidal diet-surface test for corn earworm; format: in vivo; conditions: second-instar corn earworm, 50 ug/cm2 on diet surface, 5 days after treatment, dead insects of 8
Description: (§1) The compounds identified in Table 1 were prepared using the procedures illustrated in the foregoing examples, and the compounds were tested against beet armyworm and corn earworm as follows:
(§2) Insecticidal Test for Corn Earworm (Helicoverpa zea) and Beet Armyworm (Spodoptera exigua).
(§3) To prepare test solution, the test compound was formulated at 2000 ppm solution as 4 mg/2 mL of 9 acetone:1 tap water. 50 μL of the 2000 ppm (equivalent to 50 ug/cm^2 dose on diet surface area) test solution was pipetted upon the surface of 1 mL of lepidopteran diet (Southland Multi-Species Lepidopteran Diet) contained in each of eight wells per insect species (one well=1 replication). A second-instar corn earworm and beet armyworm was placed upon the treated diet in each well once the solvent had air-dried. Trays containing the treated diet and larvae were covered and then held in a growth chamber at 25° C., 50-55% RH, and 16 hr light:8 hr dark for 5 days. Observation were conducted 5 days after treatment and infestation. The number of dead insects of 8 per species per treatment was then determined and the results are given in Table 1 as percent control at a dose of […].
(§4) Keys to the table: Mass spectral data were obtained using liquid chromatography mass spectroscopy (LC-MS). The masses are detected using electrospray ionization (ESI) and reported as Mol Ion (M+H, M−H); AVG LAPHEG 50 refers to activity against beet army worm (Spodoptera exigua) as defined above; AVG HELIZE 50 refers to activity against corn ear worm (Helicoverpa zea) as described above.

[2] = test system: Beet Armyworm (Spodoptera exigua); test: Insecticidal diet-surface test for beet armyworm; format: in vivo; conditions: second-instar beet armyworm, 50 ug/cm2 on diet surface, 5 days after treatment, dead insects of 8
Description: as §1, §2, §3, §4

Row | SMILES | HELIZE 50 (ug/cm2), percent control [1] [%] | LAPHEG 50 (ug/cm2), percent control [2] [%]
1 | Clc1ccc(/C=N/Nc2nc(Cl)cc(Nc3cccc(Br)c3)n2)cc1 [Compound 36] | 38 | 0
2 | Fc1ccc(Nc2cc(N/N=C/c3ccc(OC(F)(F)C(F)F)cc3)nc(NCc3ccc(Cl)nc3)n2)cc1C(F)(F)F [Compound 81] | 100 | 0
3 | OC(c1ccc(Nc2cc(F)nc(NN=Cc3ccc(OC(F)(F)F)cc3)n2)cc1)(C(F)(F)F)C(F)(F)F [Compound 21] | 100 | 100
4 | FC(F)C(F)(F)Oc1cccc(/C=N/Nc2nc(Cl)cc(Nc3ccc(Cl)cc3)n2)c1 [Compound 45] | 63 | 63
5 | Fc1ccc(Nc2cc(Cl)nc(N/N=C/c3cccc(Cl)c3)n2)cc1C(F)(F)F [Compound 24] | 100 | 100
6 | FC(F)(F)Oc1ccc(/C=N/Nc2nc(Nc3ccc(OC(F)(F)F)cc3)cc(C(F)(F)F)n2)cc1 [Compound 60] | 100 | 100
7 | Fc1ccc(Nc2cc(Cl)nc(N/N=C/c3ccc(OC(F)(F)F)cc3)n2)cc1C(F)(F)F [Compound 1, (6-Chloro-2-{N′-[1-(4-trifluoromethoxyphenyl)-methylidene]-hydrazino}-pyrimidin-4-yl)-(4-fluoro-3-trifluoromethylphenyl)amine] | 100 | 100
8 | FC(F)C(F)(F)Oc1ccc(Nc2cc(Cl)nc(N/N=C/c3ccc4c(c3)OC(F)(F)O4)n2)cc1 [Compound 9] | 100 | 100
9 | Fc1cnc(N/N=C/c2ccc(Br)cc2)nc1Nc1ccc(OC(F)(F)F)cc1 [Compound 12] | 100 | 0
10 | Fc1cc(Nc2ccc(OC(F)(F)C(F)F)cc2)nc(NN=Cc2ccc(OC(F)(F)C(F)F)cc2)n1 [Compound 20] | 25 | 50
11 | FC(F)(F)c1ccc(/C=N/Nc2nc(Cl)cc(Nc3cccc(Cl)c3)n2)cc1 [Compound 31] | 100 | 100
12 | CN(/N=C/c1ccc(OC(F)(F)C(F)F)cc1)c1nc(Cl)cc(Nc2ccc(F)c(C(F)(F)F)c2)n1 [Compound 58] | 100 | 100
13 | OC(c1ccc(Nc2cc(F)nc(NN=Cc3ccc(OC(F)(F)C(F)F)cc3)n2)cc1)(C(F)(F)F)C(F)(F)F [Compound 22] | 100 | 100
14 | Fc1ccc(Nc2cc(Cl)nc(N/N=C/c3ccc(OC(F)(F)C(F)F)cc3)n2)cc1C(F)(F)F [Compound 59] | 100 | 100
15 | COc1ccc(/C=N/Nc2nc(Cl)cc(Nc3ccc(Cl)cc3)n2)cc1 [Compound 29] | 0 | 63
16 | Clc1ccc(Nc2cc(Cl)nc(N/N=C/c3cccc(Cl)c3)n2)cc1 [Compound 28] | 50 | 50
17 | FC(F)C(F)(F)Oc1ccc(Nc2cc(Cl)nc(N/N=C/c3ccc(Cl)cc3)n2)cc1 [Compound 10] | 88 | 63
18 | Fc1ccc(Nc2nc(N/N=C/c3ccc(OC(F)(F)F)cc3)nc(Cl)c2Cl)cc1C(F)(F)F [Compound 41] | 75 | 0
19 | Fc1ccc(Nc2nccc(N/N=C/c3ccc(OC(F)(F)C(F)F)cc3)n2)cc1C(F)(F)F [Compound 77] | 100 | 100

Row | SMILES | HELIZE 50 (ug/cm2), percent control [1] [%] | LAPHEG 50 (ug/cm2), percent control [2] [%]
20 | Fc1ccc(Nc2nc(Cl)cc(N/N=C/c3ccc(OC(F)(F)C(F)F)cc3)n2)cc1C(F)(F)F [Compound 76] | 25 | 38
21 | Fc1cnc(N/N=C/c2ccc(OC(F)(F)F)cc2)nc1Nc1ccc(OC(F)(F)F)cc1 [Compound 13] | 100 | 0
22 | Fc1ccc(Nc2cc(C(F)(F)F)nc(N/N=C/c3cccc(Br)c3)n2)cc1C(F)(F)F [Compound 57] | 100 | 100
23 | Fc1ccc(Nc2nc(Cl)nc(N/N=C/c3ccc(OC(F)(F)F)nc3)c2Cl)cc1C(F)(F)F [Compound 82] | 100 | 100
24 | CCOc1ccc(/C=N/Nc2nc(Cl)cc(Nc3ccc(F)c(C(F)(F)F)c3)n2)cn1 [Compound 67] | 100 | 100
25 | CC(C)(C)C(=O)OC(c1cccc(Nc2cc(Cl)nc(N/N=C/c3ccc(OC(F)(F)F)cc3)n2)c1)C(F)(F)F (stereo not shown) [Compound 53] | 0 | 38
26 | FC(F)C(F)(F)Oc1ccc(Nc2cc(Cl)nc(N/N=C/c3ccc(OC(F)(F)F)cc3)n2)cc1 [Compound 6] | 100 | 100
27 | FC(F)C(F)(F)Oc1ccc(Nc2cc(Cl)nc(N/N=C/c3cccc(OC(F)(F)C(F)F)c3)n2)cc1 [Compound 7] | 25 | 88
28 | Clc1cccc(Nc2cc(Cl)nc(N/N=C/c3ccc(N4CCCCC4)cc3)n2)c1 [Compound 43] | 63 | 0
29 | FC(F)(F)c1ccc(/C=N/Nc2nc(Cl)cc(Nc3cccc(Br)c3)n2)cc1 [Compound 40] | 100 | 100
30 | Clc1ccc(/C=N/Nc2nc(Cl)cc(Nc3cccc(Cl)c3)n2)cc1 [Compound 32] | 88 | 0
31 | Fc1ccc(Nc2cc(Cl)nc(N/N=C/c3cccc(OC(F)(F)C(F)F)c3)n2)cc1C(F)(F)F [Compound 30] | 13 | 100
32 | Fc1cnc(N/N=C/c2ccc(Cl)cc2)nc1Nc1ccc(OC(F)(F)F)cc1 [Compound 16] | 100 | 100
33 | FC(F)C(F)(F)Oc1ccc(/C=N/Nc2nc(Cl)cc(Nc3ccc(OC(F)(F)C(F)F)cc3)n2)cc1 [Compound 5] | 88 | 100
34 | Fc1cnc(Nc2cccc(C(F)(F)F)c2)nc1NN=Cc1ccc(OC(F)(F)F)cc1 [Compound 79] | 100 | 100
35 | Fc1ccc(Nc2cc(N/N=C/c3ccc(C(F)(F)F)nc3)ncn2)cc1C(F)(F)F [Compound 86] | 100 | 100
36 | Fc1ccc(/C=N/Nc2nc(Cl)cc(Nc3cccc(OC(F)(F)C(F)F)c3)n2)cc1C(F)(F)F [Compound 48] | 88 | 25
37 | Fc1cc(Nc2ccc(F)c(C(F)(F)F)c2)nc(NN=Cc2ccc(OC(F)(F)F)cc2)n1 [Compound 17] | 100 | 100
38 | FC(F)C(F)(F)Oc1cccc(Nc2cc(Cl)nc(N/N=C/c3ccc(C(F)(F)F)nc3)n2)c1 [Compound 69] | 0 | 75
